BindingDB's records for doi:10.1111/cbdd.12375 (Ferdowsi University of Mashhad, 2015)

The molecules below were run against T1, Seed linoleate 13S-lipoxygenase-1 (Glycine max, UniProt P08170) (assay: 15LO Inhibition Assay). Settings: pH 7; 25 °C.
T1 sequence (P08170 whole entry): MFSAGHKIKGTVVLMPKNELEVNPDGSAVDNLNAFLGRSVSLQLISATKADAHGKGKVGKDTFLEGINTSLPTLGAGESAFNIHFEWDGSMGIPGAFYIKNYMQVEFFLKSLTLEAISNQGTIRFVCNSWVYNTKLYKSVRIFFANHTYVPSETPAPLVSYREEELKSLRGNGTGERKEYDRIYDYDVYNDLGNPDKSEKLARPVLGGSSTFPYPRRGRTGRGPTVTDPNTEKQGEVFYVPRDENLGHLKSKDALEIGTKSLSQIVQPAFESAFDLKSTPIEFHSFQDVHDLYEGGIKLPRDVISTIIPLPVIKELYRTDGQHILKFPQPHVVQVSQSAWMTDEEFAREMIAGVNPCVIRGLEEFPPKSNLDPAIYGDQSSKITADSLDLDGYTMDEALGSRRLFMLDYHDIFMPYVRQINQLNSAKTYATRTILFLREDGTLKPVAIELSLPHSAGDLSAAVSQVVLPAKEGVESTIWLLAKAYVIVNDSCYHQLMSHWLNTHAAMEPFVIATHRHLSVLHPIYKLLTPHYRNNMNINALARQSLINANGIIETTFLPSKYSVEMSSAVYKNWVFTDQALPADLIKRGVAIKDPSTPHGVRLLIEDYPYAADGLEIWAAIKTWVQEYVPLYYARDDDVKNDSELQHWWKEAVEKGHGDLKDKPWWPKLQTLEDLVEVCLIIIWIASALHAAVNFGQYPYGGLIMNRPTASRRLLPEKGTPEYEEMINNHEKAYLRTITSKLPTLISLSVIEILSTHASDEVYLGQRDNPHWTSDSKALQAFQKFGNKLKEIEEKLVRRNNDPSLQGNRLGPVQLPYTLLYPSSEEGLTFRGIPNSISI
Procedure: Linoleic acid and two assay solutions (A and B) were prepared in advance. Solution A was 50 mM 3-(dimethylamino)benzoic acid (DMAB) in a 100 mM phosphate buffer (pH 7.0). Solution B was a mixture of 10 mM 3-methyl-2-benzothiazolinone (MBTH) 3 mL, hemoglobin (5 mg/mL, 3 mL) in 50 mM phosphate buffer at pH 5.0 (25 mL). A linoleic acid solution was prepared by mixing 5 mg of linoleic acid with 50 mg Tween-20 in 3 mL water and then diluting with KOH 100 mM to a final volume of 5 mL. In the standard assay, the sample in ethanol ([…]), soybean 15-lipo-oxygenase (SLO) (4000 units/mL in 50 mM phosphate buffer pH 7.0; […]) and phosphate buffer pH 7.0 (50 mM; […]) were mixed in a test-tube, and preincubation was carried out for 5 min at room temperature. A control test was done with the same volume of ethanol. After the preincubation, linoleic acid solution […] was added to start the peroxidation reaction, and 7 min later,solution A […] and then solution B […] was added to

Q: Which IC50 does the source give for `CCN1CCN(c2nc(C)c(Br)c(Sc3nnc(Sc4nc(N5CCN(CC)CC5)nc(C)c4Br)n3N)n2)CC1` [3,5-bis((5-bromo-6-methyl-2-(4-ethylpiperazin-1-yl)pyrimidin-4-yl)thio)-4H-1,2,4-triazol-4-amine (4f)] here?
A: The IC50 was 12 µM.

Q: How did the IC50 turn out when `Cc1nc(N2CCN(C)CC2)nc(Sc2nnc(Sc3nc(N4CCN(C)CC4)nc(C)c3Br)n2N)c1Br` [3,5-bis((5-bromo-6-methyl-2-(4-methylpiperazin-1-yl)pyrimidin-4-yl)thio)-4H-1,2,4-triazol-4-amine (4d)] was run?
A: The IC50 was 9 µM.

Q: With `Cc1nc(N2CCC(C)CC2)nc(Sc2nnc(Sc3nc(N4CCC(C)CC4)nc(C)c3Br)n2N)c1Br` [3,5-bis((5-bromo-6-methyl-2-(4-methylpiperidin-1-yl)pyrimidin-4-yl)thio)-4H-1,2,4-triazol-4-amine (4c)] as the molecule, how does the IC50 read?
A: Its IC50 is greater than 500 µM.

Q: `Cc1nc(N2CCN(c3ccccc3)CC2)nc(Sc2nnc(Sc3nc(N4CCN(c5ccccc5)CC4)nc(C)c3Br)n2N)c1Br` [3,5-bis((5-bromo-6-methyl-2-(4-phenylpiperazin-1-yl)pyrimidin-4-yl)thio)-4H-1,2,4-triazol-4-amine (4e)] was tested. Which IC50 did it give?
A: The IC50 was greater than 500 µM.

Q: For `Cc1nc(N2CCCCC2)nc(Sc2nnc(Sc3nc(N4CCCCC4)nc(C)c3Br)n2N)c1Br` [3,5-bis((5-bromo-6-methyl-2-(piperidin-1-yl)pyrimidin-4-yl)thio)-4H-1,2,4-triazol-4-amine (4b)], which IC50 is on record?
A: Its IC50 is greater than 500 µM.

Q: For `Cc1nc(N2CCCC2)nc(Sc2nnc(Sc3nc(N4CCCC4)nc(C)c3Br)n2N)c1Br` [3,5-bis((5-bromo-6-methyl-2-(pyrrolidin-1-yl)pyrimidin-4-yl)thio)-4H-1,2,4-triazol-4-amine (4g)], which IC50 is on record?
A: Its IC50 is greater than 500 µM.

Q: For `Cc1nc(N2CCOCC2)nc(Sc2nnc(Sc3nc(N4CCOCC4)nc(C)c3Br)n2N)c1Br` [3,5-bis((5-bromo-6-methyl-2-morpholinopyrimidin-4-yl)thio)-4H-1,2,4-triazol-4-amine (4a)], which IC50 is on record?
A: The IC50 was greater than 500 µM.
